Data from patent US7342014B2, “Diamine derivatives” (Daiichi Pharmaceutical Co., Ltd., priority 2001, dated 2008).
Structures can show the parent of a compound that is named as a salt.

melting point	SMILES
215 to 225 °C (dec.)	CCOC(=O)N1CC[C@H](NC(=O)c2cc3cc(Cl)ccc3[nH]2)[C@H](NC(=O)c2nc3c(s2)CN(C)CC3)C1 (relative stereo) (as salt: hydrochloride) [Example 130, Ethyl (3R*,4S*)-4-{[(5-chloroindol-2-yl)carbonyl]amino}-3-{[(5-methyl-4,5,6,7-tetrahydrothiazolo[5,4-c]pyridin-2-yl)carbonyl]amino}piperidine-1-carboxylate hydrochloride]
214 to 228 °C (dec.)	CCC(=O)N1CC[C@H](NC(=O)c2cc3cc(Cl)ccc3[nH]2)[C@H](NC(=O)c2nc3c(s2)CN(C)CC3)C1 (relative stereo) (as salt: hydrochloride) [Example 133, N-((3R*,4S*)-4-{[(5-Chloroindol-2-yl)carbonyl]amino}-1-propionylpiperidin-3-yl)-5-methyl-4,5,6,7-tetrahydro-thiazolo[5,4-c]pyridine-2-carboxamide hydrochloride]
260 to 265 °C (dec.)	CN1CCc2nc(C(=O)N[C@@H]3CN(C(=O)CC(C)(C)C)CC[C@@H]3NC(=O)c3cc4cc(Cl)ccc4[nH]3)sc2C1 (relative stereo) (as salt: hydrochloride) [Example 136, N-[(3R*,4S*)-4-{[(5-Chloroindol-2-yl)carbonyl]amino}-1-(3,3-dimethylbutanoyl)piperidin-3-yl]-5-methyl-4,5,6,7-tetrahydrothiazolo[5,4-c]pyridine-2-carboxamide hydrochloride]
262 to 267 °C (dec.)	CN1CCc2nc(C(=O)N[C@@H]3CN(C(=O)C(F)(F)F)CC[C@@H]3NC(=O)c3cc4cc(Cl)ccc4[nH]3)sc2C1 (relative stereo) (as salt: hydrochloride) [Example 137, N-[(3R*,4S*)-4-{[(5-Chloroindol-2-yl)carbonyl]amino}-1-(2,2,2-trifluoroacetyl)piperidin-3-yl]-5-methyl-4,5,6,7-tetrahydrothiazolo[5,4-c]pyridine-2-carboxamide hydrochloride]
280 to 286 °C (dec.)	CN1CCc2nc(C(=O)N[C@@H]3CN(C(=O)C4CC4)CC[C@@H]3NC(=O)c3cc4cc(Cl)ccc4[nH]3)sc2C1 (relative stereo) (as salt: hydrochloride) [Example 138, N-[(3R*,4S*)-4-{[(5-Chloroindol-2-yl)carbonyl]amino}-1-(cyclopropylcarbonyl)piperidin-3-yl]-5-methyl-4,5,6,7-tetrahydrothiazolo[5,4-c]pyridine-2-carboxamide hydrochloride]
214 to 228 °C (dec.)	COCC(=O)N1CC[C@H](NC(=O)c2cc3cc(Cl)ccc3[nH]2)[C@H](NC(=O)c2nc3c(s2)CN(C)CC3)C1 (relative stereo) (as salt: hydrochloride) [Example 143, N-[(3R*,4S*)-4-{[(5-Chloroindol-2-yl)carbonyl]amino}-1-(2-methoxyacetyl)piperidin-3-yl]-5-methyl-4,5,6,7-tetrahydro-thiazolo[5,4-c]pyridine-2-carboxamide hydrochloride]
178 to 184 °C (dec.)	COCC(COC)C(=O)N1CC[C@H](NC(=O)c2cc3cc(Cl)ccc3[nH]2)[C@H](NC(=O)c2nc3c(s2)CN(C)CC3)C1 (relative stereo) (as salt: hydrochloride) [Example 152, N-{(3R*,4S*)-4-{[(5-Chloroindol-2-yl)carbonyl]amino}-1-[3-methoxy-2-(methoxymethyl)propanoyl]piperidin-3-yl]-5-methyl-4,5,6,7-tetrahydrothiazolo[5,4-c]pyridine-2-carboxamide hydrochloride]
215 to 225 °C (dec.)	CN1CCc2nc(C(=O)N[C@@H]3CN(C(=O)c4ccccc4)CC[C@@H]3NC(=O)c3cc4cc(Cl)ccc4[nH]3)sc2C1 (relative stereo) (as salt: hydrochloride) [Example 154, N-((3R*,4S*)-1-benzoyl-4-{[(5-Chloroindol-2-yl)carbonyl]amino}piperidin-3-yl]-5-methyl-4,5,6,7-tetrahydrothiazolo[5,4-c]pyridine-2-carboxamide hydrochloride]
228 to 233 °C (dec.)	CN1CCc2nc(C(=O)N[C@@H]3CN(CCF)CC[C@@H]3NC(=O)c3cc4cc(Cl)ccc4[nH]3)sc2C1 (relative stereo) (as salt: hydrochloride) [Example 168, N-[(3R*,4S*)-4-{[(5-Chloroindol-2-yl)carbonyl]amino}-1-(2-fluoroethyl)piperidin-3-yl]-5-methyl-4,5,6,7-tetrahydro-thiazolo[5,4-c]pyridine-2-carboxamide dihydrochloride]
241 to 244 °C	CN1CCc2nc(C(=O)N[C@@H]3CS(=O)(=O)CC[C@@H]3NC(=O)c3cc4cc(Cl)ccc4[nH]3)sc2C1 (relative stereo) (as salt: hydrochloride) [Example 178, N-((3R*,4R*)-4-{[(5-Chloroindol-2-yl)carbonyl]amino}-1,1-dioxohexahydro-1-thiopyran-3-yl)-5-methyl-4,5,6,7-tetrahydrothiazolo[5,4-c]pyridine-2-carboxamide hydrochloride]
243 to 245 °C	CN1CCc2nc(C(=O)N[C@@H]3CS(=O)(=O)CC[C@@H]3NC(=O)c3cc4cc(F)ccc4[nH]3)sc2C1 (relative stereo) (as salt: hydrochloride) [Example 179, N-((3R*,4R*)-4-{[(5-Fluoroindol-2-yl)carbonyl]amino}-1,1-dioxohexahydro-1-thiopyran-3-yl)-5-methyl-4,5,6,7-tetrahydrothiazolo[5,4-c]pyridine-2-carboxamide hydrochloride]

The remaining lines, values behind:

SMILES	melting point
CN1CCc2nc(C(=O)N[C@@H]3CCN(S(C)(=O)=O)C[C@@H]3NC(=O)c3cc4cc(Cl)ccc4[nH]3)sc2C1 (relative stereo) (as salt: hydrochloride)	228 to 245 °C (dec.)
COCCOC(=O)N1CC[C@H](NC(=O)c2cc3cc(Cl)ccc3[nH]2)[C@H](NC(=O)c2nc3c(s2)CN(C)CC3)C1 (relative stereo) (as salt: hydrochloride)	224 to 226 °C (dec.)
CCOC(=O)N1CC[C@@H](NC(=O)c2nc3c(s2)CN(C)CC3)[C@@H](NC(=O)c2cc3cc(Cl)ccc3[nH]2)C1 (relative stereo) (as salt: hydrochloride)	213 to 225 °C (dec.)
CN1CCc2nc(C(=O)N[C@@H]3CN(C(=O)C4CCC4)CC[C@@H]3NC(=O)c3cc4cc(Cl)ccc4[nH]3)sc2C1 (relative stereo) (as salt: hydrochloride)	271 to 275 °C (dec.)
CN1CCc2nc(C(=O)N[C@@H]3CN(C(=O)C4CCCC4)CC[C@@H]3NC(=O)c3cc4cc(Cl)ccc4[nH]3)sc2C1 (relative stereo) (as salt: hydrochloride)	254 to 260 °C (dec.)
CN1CCc2nc(C(=O)N[C@@H]3CN(C(=O)C4CC(O)C4)CC[C@@H]3NC(=O)c3cc4cc(Cl)ccc4[nH]3)sc2C1 (relative stereo) (as salt: hydrochloride)	200 °C (dec.)
CN1CCc2nc(C(=O)N[C@@H]3CN(C(=O)C4CCOCC4)CC[C@@H]3NC(=O)c3cc4cc(Cl)ccc4[nH]3)sc2C1 (relative stereo) (as salt: hydrochloride)	225 to 248 °C (dec.)
CCNC(=O)N1CC[C@H](NC(=O)c2cc3cc(Cl)ccc3[nH]2)[C@H](NC(=O)c2nc3c(s2)CN(C)CC3)C1 (relative stereo) (as salt: hydrochloride)	221 to 235 °C (dec.)
CN1CCc2nc(C(=O)N[C@@H]3CNCC[C@@H]3NC(=O)c3cc4cc(Cl)ccc4[nH]3)sc2C1 (relative stereo) (as salt: hydrochloride) [Example 118, N-((3R*,4S*)-4-{[(5-Chloroindol-2-yl)carbonyl]amino}-piperidin-3-yl)-5-methyl-4,5,6,7-tetrahydrothiazolo[5,4-c]pyridine-2-carboxamide dihydrochloride]	240 to 258 °C (dec.)
CN1CCc2nc(C(=O)N[C@@H]3CNCC[C@@H]3NC(=O)c3cc4cc(F)ccc4[nH]3)sc2C1 (relative stereo) (as salt: hydrochloride) [Example 122, N-((3R*,4S*)-4-{[(5-Fluoroindol-2-yl)carbonyl]amino}-piperidin-3-yl)-5-methyl-4,5,6,7-tetrahydrothiazolo[5,4-c]pyridine-2-carboxamide dihydrochloride]	236 to 245 °C (dec.)
CC(=O)N1CC[C@@H](NC(=O)c2nc3c(s2)CN(C)CC3)[C@@H](NC(=O)c2cc3cc(Cl)ccc3[nH]2)C1 (relative stereo) (as salt: hydrochloride) [Example 124, N-((3R*,4S*)-1-Acetyl-3-{[(5-chloroindol-2-yl)carbonyl]-amino}piperidin-4-yl)-5-methyl-4,5,6,7-tetrahydro-thiazolo[5,4-c]pyridine-2-carboxamide hydrochloride]	225 to 250 °C (dec.)
CN1CCc2nc(C(=O)N[C@@H]3CN(S(C)(=O)=O)CC[C@@H]3NC(=O)c3cc4cc(Cl)ccc4[nH]3)sc2C1 (relative stereo) (as salt: hydrochloride) [Example 126, N-[(3R*,4S*)-{[(5-Chloroindol-2-yl)carbonyl]amino}-1-(methylsulfonyl)piperidin-3-yl]-5-methyl-4,5,6,7-tetrahydrothiazolo[5,4-c]pyridine-2-carboxamide hydrochloride]	225 to 230 °C (dec.)
CN1CCc2nc(C(=O)N[C@@H]3CN(S(C)(=O)=O)CC[C@@H]3NC(=O)c3cc4cc(F)ccc4[nH]3)sc2C1 (relative stereo) (as salt: hydrochloride) [Example 128]	216 to 250 °C (dec.)
COC(=O)N1CC[C@H](NC(=O)c2cc3cc(Cl)ccc3[nH]2)[C@H](NC(=O)c2nc3c(s2)CN(C)CC3)C1 (relative stereo) (as salt: hydrochloride) [Example 129, Methyl (3R*,4S*)-4-{[(5-chloroindol-2-yl)carbonyl]amino}-3-{[(5-methyl-4,5,6,7-tetrahydrothiazolo[5,4-c]pyridin-2-yl)carbonyl]amino}piperidine-1-carboxylate hydrochloride]	248 to 253 °C (dec.)
